In patent US8337828B2, “Use of thymosin alpha 1, alone or in combination with PTX3 or ganciclovir, for the treatment of cytomegalovirus infection” (priority 2006, dated 2012):
Ends that are not written are not given here.

What was measured:
IRF7 = assay: Immunoblot analysis of nuclear IRF7 in DC subsets; type: cell-based, BALB/c mice; details: pDC, 50 μg/ml, alone or in combination with virus
Procedure: (FIG. 3a) CD11b+DC or pDC were generated from bone marrow of BALB/c mice, infected with MCMV and assessed for morphology by light microscopy and viral replication by real-time PCR of MCMV gB transcripts expression (both at 48 h) or for IRF7 nuclear expression by immunobloting with anti-IRF7 (2 h later). Cells were exposed (+) or not (−) to 50 μg/ml Thymosin alpha 1 for 2 h at 37° C. before infection. − represents uninfected cells. The results shown represent one representative experiment out of 3.
Immunoblot analysis of IRF7. DC were exposed for […] 50 μg/ml Thymosin alpha 1 or 10^5 PFU MCMV, either alone or in combination. Nuclear extracts were prepared with NE-PER nuclear and cytoplasmic extraction reagents (Pierce, Celbio S.r.l., Milan, Italy) and the protein concentration of the nuclear extracts was determined with a BCA-200 protein assay kit (Pierce) following the manufacture's instructions. Nuclear content of IRF7 was determined by Western blot using rabbit anti-IRF7 (H246) antibody and bovine anti-rabbit-horseradish peroxidase (Santa Cruz Biotechnology). Visualization was performed with the ECL Western blotting analysis system from Amersham and Kodak Biomax films.

lymphosarcoma cells = details: mouse, in vivo; cited from earlier work
MCMV = MCMV viral load in TLR-deficient mice (plaque assay); type: in vivo, C57BL6, TLR4-/-, TLR9-/- and MyD88-/- mice; details: 200 μg/kg for a week
Procedure: Viral load (FIG. 4a) and cytokine production (FIG. 4b) in C57BL6, TLR4−/−, TLR9−/− and MyD88−/− mice infected with 5×10^5 PFU of MCMV and treated with 200 μg/kg Tα1 for a week. Virus titers, expressed as log 10, were quantified on MEF cells by standard plaque assay on infected tissues removed a week after infection and treatment. Cytokine (pg/ml) levels in culture supernatants of spleen cells were determined by ELISA assay. Bars indicate the standard errors. *P<0.05, Tα1-treated vs untreated mice. Results are representative of 3 independent experiments. Mice. Wild-type (WT) inbred C57BL6 and BALB/c mice, 8 to 12 weeks old, were purchased from Charles River Breeding Laboratories (Calco, Italy). Pairs of homozygous TLR9-(TLR9−/−), TLR4-(TLR4−/−), and MyD88-(MyD88−/−)-deficient mice (on the C57BL6 background), were bred under specific pathogen-free conditions at the breeding facilities of the University of Perugia, Perugia, Italy. Experiments were performed following protocols approved by the institutional animal committee and in accordance with European Economic Community Council Directive as well as institutional animal care and use guidelines. Plaque assay. Plaque assay was determined on cells grown to subconfluence and incubated with serially diluted virus samples for 2 h at 37° C. (10). All organs from uninfected animals were negative viruses. Virus titers are expressed as log 10 (mean±standard errors, SE).

spleen cells = assay: Cytokine levels in culture supernatants of spleen cells from MCMV-infected mice (ELISA); type: in vivo
Excerpt: Arrow indicates an inducible band. Lane 1, uninfected cells; lane 2, MCMV-infected; lane 3, Thymosin alpha 1 treated; lane 4, MCMV+Thymosin alpha 1 treated. (FIG. 3b) Cytokine production (pg/ml) by DC subsets treated as above. Bars indicate the standard errors. *P<0.05, cytokine production in MCMV-infected DC vs uninfected DC. **P<0.05, Thymosin alpha 1-treated vs untreated DC. (FIG. 3c) Cytokine production in mice during MCMV infection. Cytokine levels (pg/ml) in culture supernatants of spleen cells from mice with MCMV infection and treated for a week with Thymosin alpha 1 or GCV. *P<0.05, treated vs untreated mice. ND, not done.
Viral load (FIG. 4a) and cytokine production (FIG. 4b) in C57BL6, TLR4−/−, TLR9−/− and MyD88−/− mice infected with 5×10^5 PFU of MCMV and treated with 200 μg/kg Tα1 for a week. Virus titers, expressed as log 10, were quantified on MEF cells by standard plaque assay on infected tissues removed a week after infection and treatment. Cytokine (pg/ml) levels in culture supernatants of spleen cells were determined by ELISA assay. Bars indicate the standard errors. *P<0.05, Tα1-treated vs untreated mice. Results are representative of 3 independent experiments.
BALB/c or C57BL6 mice were infected with 10^5 or 5×10^5 PFU of MCMV, respectively. Virus titers, expressed as log 10, were quantified on MEF cells by standard plaque assay on lung tissues removed 7 days after the infection. Tα1 (200 μg/kg/daily for a week) and/or GCV (40 mg/kg, three times a week) were administered beginning the day of the infection. Cytokine (pg/ml) levels in culture supernatants of spleen cells (7 days) were determined by ELISA assay. Bars indicate the standard errors. *P<0.05, treated vs untreated mice. Results are representative of 3 independent experiments.
Quantification of cytokines by ELISA and ELISPOT assays. The levels of cytokines in the culture supernatants of mitogen-stimulated spleen cells (48 h stimulation with 10 μg/ml ConA) or MCMV-pulsed DC (24 h) were determined by ELISA (R&D Systems and PBL, Biomedical Lab, Milan, Italy). The detection limits (pg/ml) of the assays were <16 for IL-12 p70, <10 for IFN-., <3 for IL-10 and <10 for IFN-a. IFN-.-producing NK cells were enumerated by ELISPOT assay on purified NK (Virus Res. 2003; 98:17-467 25). Results are expressed as the mean number of cytokine-producing cells (±SE) per 10^5 cells, calculated using replicates of serial 2-fold dilutions of cells.

[1] = BALB/c mice with MCMV infection, particularly in the first weeks

Ac-Ser-Asp-Ala-Ala-Val-Asp-Thr-Ser-Ser-Glu -Ile-Thr-Thr-Lys-Asp-Leu-Lys-Glu-Lys-Lys-Glu-Val-Glu-Glu-Ala-Glu-Asn-O (Ac-SDAAVDTSSEITTKDLKEKKEVEEAEN) [Thymosin alpha 1, acidic peptide present in thymus extract with immunoregulatory properties]
nuclear IRF7 expression (translocation) (IRF7): translocation of IRF7 | local sarcoma growth, liver and lung metastases of lymphosarcoma cells (lymphosarcoma cells): significantly reduced | antiviral effect (viral load) (MCMV; C57BL6 mice): effective | antiviral effect (viral load) (MCMV; MyD88-/- mice): completely ineffective | antiviral effect (viral load) (MCMV; TLR4-/- mice): effective | antiviral effect (viral load) (MCMV; TLR9-/- mice): completely ineffective | IL-10 production (spleen cells; BALB/c mice with MCMV infection): dramatically increased | IFN-. production (spleen cells; [1]): significantly increased | IFN-a production (spleen cells; [1]): significantly increased | IL-12p70 production (spleen cells; BALB/c mice with MCMV infection, soon after treatment, declining thereafter): slightly increased | levels of IFN-α, IL-12p70 and IFN-. in supernatants of splenocytes (spleen cells; C57BL6 and TLR4-/- mice, 200 μg/kg for a week): significantly increased
